Data: patent publication US8410309B2, “Phenoxy carboxylic acid compounds and compositions for delivering active agents” (Emisphere Technologies, Inc., priority 1999, dated 2013)
Where “and” joins values, the source holds several entries; their conditions need not be identical. Identical values can stand only once. Marks after values point to notes of the source that are not given here.

Key:
[1] = Low molecular weight heparin (LMWH) oral/intracolonic delivery, plasma LMWH by anti-Factor Xa assay; type: in vivo, Sprague-Dawley rats; settings: IC, rats; delivery agent compound 50 mg/kg, LMWH 750 IU/kg, 1 ml/kg
Protocol: Oral dosing (PO) and/or intracolonic (IC) compositions containing a delivery agent compound and low molecular weight heparin (LMWH) were prepared in 25% aqueous propylene glycol. […] Typically, the delivery agent compound and LMWH (Parnaparin, 91 IU/mg average molecular weight about 5,000, available from Opocrin, Modena, Italy) (typically 90-105 IU/mg, average molecular weight about 5,000) were mixed by vortex as dry powders. This dry mixture was dissolved in 25% v/v aqueous propylene glycol, vortexed, and placed in a sonicator (37° C.) to produce a clear solution. The pH was adjusted to about 7 (6.5-8.5) with 2N aqueous NaOH. The dosing solution was sonicated to produce a clear solution. The final volume was adjusted to 3.0 ml.
(§1) The typical dosing and sampling protocols were as follows. […] The dosing solution was expressed slowly into the colon by pressing the syringe plunger.
Citrated blood samples were collected by cardiac puncture following the administration of ketamine (88 mg/kg), typically at 0.5, 1.0, 2.0, 3.0 and 4.0 hours after dosing. LMWH absorption was verified by an increase in plasma LMWH measured by the anti-Factor Xa assay CHROMOSTRATE™ Heparin anti-Xa assay (available from Organon Teknika Corporation, Durham, N.C.). […] The peak of these mean plasma LMWH concentrations is reported below in Table 5.

[2] = Salmon calcitonin (sCT) oral delivery, serum sCT by EIA; settings: rats, delivery agent compound dose 150 mg/kg, sCT dose 30 μg/kg
Protocol: Oral dosing (PO) compositions of a delivery agent compound and salmon calcitonin (sCT) in deionized water were prepared as described in Table 2 below. […] Either the sodium salt of the compound was used or the free acid was converted to the sodium salt by stirring the resultant solution and adding one equivalent of sodium hydroxide (1.0 N) and diluting with water. The solution was vortexed, then heated (about 37° C.) and sonicated. The pH was adjusted to about 7 (about 6.5 to 8.5) with NaOH or HCl. 90 μg sCT from a sCT stock solution (2 mg/ml made by adding 10001 pH 4 phosphate buffer to sCT and allowing it to go into solution by sitting for about 10-20 minutes and periodically gently inverting) was added to the solution.
The typical dosing and sampling protocols were as follows. Male Sprague-Dawley rats weighing between 200-250 g were fasted for 24 hours and administered ketamine (44 mg/kg) and chlorpromazine (1.5 mg/kg) 15 minutes prior to dosing and again as needed to maintain anesthesia. A dosing group of five animals was administered one of the dosing solutions. For oral dosing, an 11 cm Rusch 8 French catheter was adapted to a 1 ml syringe with a pipette tip. The syringe was filled with dosing solution by drawing the solution through the catheter, which was then wiped dry. The catheter was placed down the esophagus leaving 1 cm of tubing past the incisors. Solution was administered by pressing the syringe plunger.
Blood samples were collected serially from the tail artery, typically at time=0, 10, 20, 30, 60 and 90 minutes. […] Numbers were adjusted according to baseline values obtained at time=0. The results from the animals in each dosing group were averaged for each time point.

[3] = Daptomycin oral delivery, plasma daptomycin by HPLC; type: in vivo, Sprague-Dawley rats; settings: rats, delivery agent compound dose 200 mg/kg, daptomycin dose 50 mg/kg, volume dose 1 mL/kg
Protocol: Dosing solutions containing a delivery agent compound and daptomycin (Cubist Pharmaceuticals, Cambridge, Mass.) were prepared in 0.9% normal saline. […] This mixture was vortexed and placed in a sonicator (about 37° C.). The pH was adjusted to about 7.0-7.5 with aqueous HCl or NaOH. […] The mixture was vortexed to produce a uniform solution, also using sonication if necessary. The delivery agent compound solution was mixed with daptomycin from a stock solution (200 mg daptomycin/mL in 0.9% normal saline and the pH adjusted, if necessary, to between 6.0-7.0 with NaOH or HCl). The stock solution was stored frozen (−20° C.) wrapped in foil, then thawed and warmed gradually to about 25° C. before using. The delivery agent-daptomycin mixture was vortexed at low speed to produce a uniform solution. The pH was adjusted to about 7.0-7.5 with aqueous NaOH. The solution was then diluted with 0.9% normal saline to the desired volume (usually 2.0 ml) and concentration and stored wrapped in foil before use.
(§2) The typical dosing and sampling protocols were as follows.
Heparinized rat blood samples were collected via the ventral tail artery, typically at 0.25, 0.5, 0.75, 1.0, 2.0, and 4.0 hours after dosing, and stored on ice. Blood samples were then spun (centrifuged) at 11,500 rpm for 4 minutes at 4° C. to obtain the plasma (supernatant), which was stored at −70° C. The plasma daptomycin concentrations were measured by isocratic reversed phase HPLC, keeping samples at 4° C. during analysis. Blank plasma studies show baseline values of zero.
Daptomycin blood concentrations results from the individual animals in each dosage group were averaged for each time point.

[4] = Heparin oral/intracolonic delivery, clotting time by activated partial thromboplastin time (APTT); type: in vivo, Sprague-Dawley rats; settings: rats, baseline about 20 seconds
Protocol: Oral gavage (PO) and/or intracolonic (IC) dosing solutions containing a delivery agent compound and heparin sodium USP were prepared in 25% aqueous propylene glycol. […] This dry mixture was dissolved in 25% v/v aqueous propylene glycol, vortexed, and placed in a sonicator (about 37° C.). The pH was adjusted to about 7 (6.5 to 8.5) with aqueous NaOH (2N). The dosing solution was sonicated to produce a clear solution. The final volume was adjusted to about 3.0 ml.
as §1
Citrated blood samples were collected by cardiac puncture following the administration of ketamine (88 mg/kg), typically at 0.25, 0.5, 1.0 and 1.5 hours after dosing. Heparin absorption was verified by an increase in clotting time measured by the activated partial thromboplastin time (APTT) according to the method of Henry, J. B., Clinical Diagnosis and Management by Laboratory Methods, Philadelphia, Pa., W.B. Saunders (1979). Previous studies indicated baseline values of about 20 seconds.

[5] = Interferon oral delivery, serum IFN by immunoassay; type: in vivo, Sprague-Dawley rats; settings: rats, 1 ml/kg
Protocol: Dosing solutions of delivery agent compound and human interferon (IFN) were prepared in deionized water. […] This mixture was vortexed and placed in a sonicator (about 37° C.). The pH was adjusted to about 7.0 to 8.5 with aqueous NaOH. The mixture was vortexed to produce a uniform suspension or solution, also using sonication and heat if necessary.
as §2
Serum IFN concentrations were quantified using Cytoscreen Immunoassay Kit for human IFN-alpha (catalog # KHC4012 from Biosource International, Camarillo, Calif.). Previous studies indicated baseline values of about zero.

[6] = Cromolyn oral delivery, serum cromolyn by HPLC; type: in vivo, Sprague-Dawley rats; settings: rats, delivery agent compound dose 200 mg/kg, cromolyn dose 25 mg/kg, in µg/mL (unit assumed)
Protocol: Dosing solutions containing a delivery agent compound (prepared as in Example 1) and cromolyn, disodium salt (cromolyn)(from Sigma Chemical Co., St. Louis, Mo.) were prepared in deionized water. […] This mixture was vortexed and placed in a sonicator (about 37° C.). The pH was adjusted to about 7-7.5 with aqueous NaOH. […] The mixture was vortexed to produce a uniform solution, also using sonication and heat if necessary. The delivery agent compound solution was mixed with cromolyn from a stock solution (175 mg cromolyn/ml in deionized water, pH adjusted, if necessary, with NaOH or HCl to about 7.0, stock solution stored frozen wrapped in foil, then thawed and heated to about 30° C. before using). The mixture was vortexed to produce a uniform solution, also using sonication and heat if necessary. The pH was adjusted to about 7-8 with aqueous NaOH. The solution was then diluted with water to the desired volume (usually 2.0 ml) and concentration and stored wrapped in foil before use.
as §2
Blood samples were collected via the tail artery, typically at 0.25, 0.5, 1.0 and 1.5 hours after dosing. Serum cromolyn concentrations were measured by HPLC. Samples were prepared as follows: 100 μl serum was combined with 100 μl 3N HCl and 300 μl ethyl acetate in an eppendorf tube. The tube was vortexed for 10 minutes and then centrifuged for 10 minutes at 10,000 rpm. 200 μl ethyl acetate layer was transferred to an eppendorf tube containing 67 μl 0.1 M phosphate buffer. The tube was vortexed for 10 minutes and then centrifuged for 10 minutes at 10,000 rpm. […] Previous studies indicated baseline values of about zero.

[7] = Recombinant human growth hormone (rhGH) oral delivery, serum rhGH by immunoassay; settings: oral gavage, rats, delivery agent compound 200 mg/kg, rhGH 3 mg/kg
Protocol: Oral gavage (PO) dosing solutions of delivery agent compound and rhGH in phosphate buffer were prepared by mixing. A solution of the delivery agent compound was made either with the sodium salt of the delivery agent compound or by converting the free acid to its sodium salt.
The typical dosing and sampling protocols were as follows. Male Sprague-Dawley rats weighing 200-250 g were fasted for 24 hours and administered ketamine (44 mg/kg) and chlorpromazine (1.5 mg/kg) 15 minutes prior to dosing and again as needed to maintain anesthesia. A dosing group of five animals was administered one of the dosing solutions. An 11 cm Rusch 8 French catheter was adapted to a 1 ml syringe with a pipette tip. The syringe was filled with dosing solution by drawing the solution through the catheter, which was then wiped dry. The catheter was placed down the esophagus leaving 1 cm of tubing past the incisors. The dosing solution was administered by pressing the syringe plunger.
Blood samples were collected serially from the tail artery typically at time=15, 30, 45, 60 and 90 minutes. The five samples from each time period were pooled (except for those samples for which standard deviation (SD) and standard error (SE) are reported). Serum rHGH concentrations were quantified by an rHGH immunoassay test kit (Kit # K1F4015 from Genzyme Corporation Inc., Cambridge, Mass.).

[8] = Insulin oral delivery, serum human insulin by ELISA; settings: rats, 1 ml/kg
Protocol: Oral dosing (PO) compositions of delivery agent compound and human zinc insulin (minimum 26 IU/mg available from Calbiochem—Novabiochem Corp, La Jolla, Calif.) were prepared in deionized water. […] The pH was adjusted to about 7 to 8.5 with NaOH or HCl. […] The final delivery agent compound dose, insulin dose and dose volume amounts are listed below in Table 8.
as §2
Serum insulin levels were determined with an Insulin ELISA Test Kit (Kit # DSL-10-1600 from Diagnostic Systems Laboratories, Inc., Webster, Tex.), modifying the standard protocol in order to optimize the sensitivity and linear range of the standard curve for the volumes and concentrations of the samples used in the present protocol. […] The five values for each time point were averaged and the results plotted as serum insulin concentration versus time.

[9] = Parathyroid hormone (PTH 1-34) oral/intracolonic delivery, serum PTH by radioimmunoassay; settings: rats, oral (PO); delivery agent compound dose 100 mg/kg, PTH dose 200 μg/kg, volume dose 1 ml/kg
Protocol: Oral gavage (PO) and/or intracolonic (IC) dosing solutions of delivery agent compound and human parathyroid hormone residues 1-34 (PTH) in deionized water were prepared. A solution of the compound was made either with the sodium salt of the delivery agent compound or by converting the free acid to its sodium salt.
The typical dosing and sampling protocols were as follows. Male Sprague-Dawley rats weighing between 200-250 g were fasted for 24 hours and administered ketamine (44 mg/kg) and chlorpromazine (1.5 mg/kg) 15 minutes prior to dosing and again as needed to maintain anesthesia. A dosing group of five animals was administered one of the dosing solutions. For oral gavage (PO), an 11 cm Rusch 8 French catheter was adapted to a 1 ml syringe with a pipette tip. The syringe was filled with dosing solution by drawing the solution through the catheter, which was then wiped dry. The catheter was placed down the esophagus leaving 1 cm of tubing past the incisors. The dosing solution was administered by pressing the syringe plunger. For intracolonic (IC) dosing, a 7.5 cm Rusch catheter tube (French 8 or 6) was adapted to a syringe with an Eppendorf pipette tip. The syringe was filled with the dosing solution by drawing the solution through the catheter tube. The catheter tube was wiped dry. K-Y jelly was applied to the tip, avoiding contact with the eye of the tube, and the tube was inserted into the colon through the anus until the tube was no longer visible. The dosing solution was injected by pressing the syringe plunger, and the tube was removed.
Previous studies indicated baseline values of about zero. Results from the animals in each group were averaged for each time point.

[10] = Insulin pulmonary delivery, serum insulin by ELISA, ratio to insulin-alone control; type: in vivo, Sprague-Dawley rats; settings: pulmonary, rats; volume 0.4 ml/kg, delivery agent compound 0.03 mg/kg, insulin 0.3 mg/kg (so in the source)
Protocol: Dosing compositions of delivery agent compound and human insulin in water were prepared. Typically, to 1.5 mg of delivery agent compound was added deionized water to bring the volume to 1.0 ml, and the solution was vortexed. […] The pH was adjusted to between about 7.0 to 8.5 with NaOH or HCl. […] The final delivery agent compound dose, insulin dose and volume dose amounts are listed below in Table 9.
The typical dosing and sampling protocols were as follows. […] A control group of five animals was dosed insulin alone. A tracheal instillator for rodents, equipped with light (available from Penn Century, Inc., Pittsburgh, Pa.) was filled with dosing solution and inserted down the throat until the needle went into the trachea (confirmed visually). The dosing solution was administered by pressing the plunger.
Blood samples from each animal were collected serially from the tail artery, typically at 5, 15, 30, 60 and 120 minutes after dosing. […] The ratio of the area under the curve (AUC) for the test group versus that of the control group is reported below. The ratio of the maximum serum insulin concentration (Cmax) for the test group versus that of the control group is also reported below.

[11] = IC (intracolonic), delivery agent compound 50 mg/kg, heparin 25 mg/kg, volume dose 1 ml
[12] = delivery agent compound 200 mg/kg, IFN 1 mg/kg

Row | SMILES | Mean plasma Cmax [daptomycin] ± SD [3] | Mean Peak APTT ± SD [4, 11] | Mean Peak serum [cromolyn] ± SD (SE) ([6]; volume dose 1 ml/kg) | Mean Peak Serum sCT (pg/ml ± SD) (SE) ([2]; dose volume 1 (ml)) | Mean Peak Serum [IFN] ± SD [5, 12] | further results
1 | O=C(O)c1ccc(COc2ccccc2O)cc1 [Compound 2] | 5.07 ± 0.61 µg/mL | 48.788 ± 32.79 s | – | – | – | Mean Peak Plasma LMWH Concentration ± SD [1]: 1.038 ± 0.338 IU/ml; Mean Peak Serum sCT (pg/ml ± SD) (SE) ([2]; dose volume 1 (ml), 150 mg/kg): 628 ± 221 pg/mL and 449 ± 550 pg/mL and 320 ± 348 pg/mL
2 | O=C(O)CCCCCOc1ccccc1O [Compound 5] | 7.082 ± 3.86 µg/mL | – | 0.63 ± 0.47 | 349 ± 348 pg/mL | – | Mean Peak Serum [IFN] ± SD ([5]; delivery agent compound 50 mg/kg, IFN 0.5 mg/kg): 1.54 ± 0.26 ng/mL and 2.1 ± 0.95 ng/mL; Mean Peak APTT ± SD ([4]; PO (oral gavage), delivery agent compound 300 mg/kg, heparin 100 mg/kg, volume dose 3 ml): 135.7 ± 17.3 s
3 | CC(=O)c1ccccc1OCCCCCC(=O)O [Compound 11] | 13.27 ± 13.43 µg/mL | 39.53 ± 8.25 s | – | 526 ± 415 pg/mL | – | Mean Peak Serum [rhGH] ([7]; volume dose 1 ml): 35.4 ng/mL; Mean Peak Plasma LMWH Concentration ± SD [1]: 0.91 ± 0.414 IU/ml
4 | O=C(O)CCCOc1ccccc1 [Compound 14] | 14.2 ± 24.84 µg/mL | – | – | – | – | Mean Peak Serum [rhGH] ([7]; volume dose 1 ml): 19.8 ng/mL
5 | O=C(O)CCCCCOc1ccccc1 [Compound 15] | 9.5 ± 5.49 µg/mL | – | 0.38 ± 0.15 | – | 6.0324 ± 2.8 ng/mL | Mean Peak Serum [INS] ± SD ([8]; delivery agent compound 100 mg/kg, insulin 3 mg/kg): 1332.2 ± 1906.4 μU/ml; Mean Peak Serum sCT (pg/ml ± SD) (SE) ([2]; dose volume 2 (ml)): 116 ± 88 pg/mL
6 | CC(C)NC(=O)c1ccccc1OCCCCCCCC(=O)O [Compound 34] | – | – | – | – | – | Mean Peak Serum [PTH] (pg/mL) ± SD [9]: 538 ± 328 pg/mL; Mean Peak Serum sCT (pg/ml ± SD) (SE) ([2]; dose volume 1 (ml), 150 mg/kg): 103 ± 72 pg/mL and 137 ± 178 pg/mL
7 | O=C(O)CCCCCCCOc1cccc(O)c1 [Compound 43] | – | – | – | 50 ± 71 pg/mL | 1 ± 2.1 ng/mL and 1.206 ng/mL | Mean Ratio of AUC for insulin + compound versus AUC for insulin alone [10]: 1.44; AUC (Total AUC(0→∞)) of daptomycin [3]: 4555* μg-min/mL and 2895* μg-min/mL and 2820* μg-min/mL
8 | O=C(O)CCCCCCCOc1ccc(O)cc1 [Compound 47, (4-hydroxyphenyl)-8-oxyoctanoic acid] | – | 370.3 ± 97.8 s | 0.56 ± 0.39 | 62 ± 99 pg/mL | 1.1 ± 0.85 ng/mL | Mean Ratio of AUC for insulin + compound versus AUC for insulin alone [10]: 0.63; Mean Peak Serum [rhGH] ([7]; volume dose 2 ml): 9.9 ± 22.1 ng/mL; Mean Peak serum [cromolyn] ± SD (SE) ([6]; volume dose 2 ml/kg): 0.55 ± 0.12
9 | CC(=O)c1cc(O)ccc1OCCCCCCCC(=O)O [Compound 57, (4-hydroxy-2-acetylphenyl)-8-oxyoctanoic acid] | 8.59 ± 4.21 µg/mL | – | – | – | – | Mean Peak Serum [INS] ± SD ([8]; delivery agent compound 200 mg/kg, insulin 3 mg/kg): 3322 ± 2721 μU/ml
10 | O=Cc1ccccc1OCCCCCCCC(=O)O [Compound 61] | – | – | 0.54 ± 0.39 and 0.57 ± 0.36 | – | – | Mean Peak Serum [INS] ± SD ([8]; delivery agent compound 200 mg/kg, insulin 0.5 mg/kg): 58.99 ± 27.15 μU/ml; Mean Peak serum [cromolyn] ± SD (SE) ([6]; volume dose 2 ml/kg): 0.39 ± 0.21
